± gives the expanded uncertainty stated by the source.
How the values were obtained:
[1] = DTA; for Normal melting temperature: Crystal
[2] = Molar enthalpy of transition or fusion; conditions: Crystal; DSC

SMILES | Normal melting temperature [1] [°C] | Glass transition temperature ([1]; Glass) [°C] | Molar enthalpy of transition or fusion [2] [kcal/mol]
OCCN1CCN(CCCN2c3ccccc3Sc3ccc(Cl)cc32)CC1 [perphenazine] | 93.7 ± 0.4 | 18.7 ± 0.4 | 10.8 ± 0.239
COc1ccc2c(c1)c(CC(=O)O)c(C)n2C(=O)c1ccc(Cl)cc1 | 160.5 ± 0.4 |  | 18 ± 0.359
Cn1c(=O)c2[nH]cnc2n(C)c1=O.Cn1c(=O)c2[nH]cnc2n(C)c1=O.NCCN [aminophylline] | 269.1 ± 0.4 |  | 6.19 ± 0.143
CN1[C@@H](CC(=O)c2ccccc2)CCC[C@H]1C[C@H](O)c1ccccc1.Cl [(-)-lobeline hydrochloride] | 193.2 ± 0.4 |  | 18.2 ± 0.382
